The structures appear in SMILES notation.

The subject of this assay is GUMC-403. The assay is described as follows: viability at highest tested concentration (max response) relative to DMSO (% of DMSO control); higher = less cytotoxic. The note with it: library / dose series: MIPE library, 11-point 1:3 dilution, 48 h. In short, it runs like this: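 Conditionally reprogrammed GUMC-403 papilloma cells from a patient were plated at 700/well in 5 μL F + Y medium in 1536-well plates and left overnight at 37 °C. A pin tool then added 23 nL of library compounds as an 11-point 1:3 series, for 48 h. CellTiter-Glo luminescence was read on a ViewLux and scaled with vehicle wells set to 100% and empty wells to 0%. Each value gives viability at the highest tested concentration relative to vehicle control.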

As for `CC(=O)N(C)c1cccc(-c2ccnc3c(C(=O)c4cccs4)cnn23)c1`, the viability (top concentration 46.1 µM) came to 106.

`COc1ccc(C(=O)c2c(C)n(CCN3CCOCC3)c3cc(I)ccc23)cc1` yielded a viability (top concentration 46.1 µM) of 143.

`COc1ccc(COc2cc3oc(=O)c4cc(C(C)O)ccc4c3cc2OC)cc1` (stereo not given) showed a viability (top concentration 46.1 µM) of 86.3.

On to `COc1ccc(/C=C\c2cc(OC)c(OC)c(OC)c2)cc1O`, for which the viability (top concentration 46.1 µM) was found to be 93.7.

`O=C(Nc1cc(Cl)cc2c1[nH]c1cnccc12)c1cccnc1` showed a viability (top concentration 46.1 µM) of 56.8.

Turning to `CC(C)(O)[C@H]1CC[C@@](C)([C@H]2[C@@H](O)C[C@@]3(C)[C@@H]4C[C@H](O[C@@H]5O[C@H](CO)[C@@H](O)[C@H](O)[C@H]5O)[C@H]5C(C)(C)[C@@H](O[C@@H]6OC[C@@H](O)[C@H](O)[C@H]6O)CC[C@@]56C[C@@]46CC[C@]23C)O1`, under “top concentration 46.1 µM”, the viability was 119.

On to `CO[C@@H](C(=O)N1Cc2[nH]nc(NC(=O)c3ccc(N4CCN(C)CC4)cc3)c2C1)c1ccccc1`, for which the viability (top concentration 46.1 µM) came to 63.5.

`CCN(CC)CCOc1ccc(Cc2ccccc2)cc1` returned a viability (top concentration 46.1 µM) of 101.

For `CC(=O)OCC(=O)[C@@]1(O)CC[C@H]2[C@@H]3CCC/4=C/C(=O)CC[C@]4(C)[C@H]3C(=O)C[C@]12C`, where the note is “top concentration 46.1 µM”, the viability amounted to 119.

With `CNC(=O)c1ccc2cc(C3(O)CCn4cncc43)ccc2c1` (stereo not given), the viability (top concentration 46.1 µM) was found to be 106.

As to `COc1ccc(CC2c3cc(OC)c(OC)cc3CC[N+]2(C)CCC(=O)OCCCCCOC(=O)CC[N+]2(C)CCc3cc(OC)c(OC)cc3C2Cc2ccc(OC)c(OC)c2)cc1OC` (stereo not given), the viability (top concentration 7.37 µM) is 84.

With `CC(=O)O[C@H]1C[C@@H]2CC[C@@H]3[C@H](CC[C@@]4(C)[C@H]3C[C@H]([N+]3(C)CCCCC3)[C@@H]4OC(C)=O)[C@@]2(C)C[C@@H]1[N+]1(C)CCCCC1`, where the note is “top concentration 46.1 µM”, the viability is 122.

For the setting “top concentration 46.1 µM”, `CC#CCn1c(N2CCC[C@@H](N)C2)nc2c1c(=O)n(Cc1nc(C)c3ccccc3n1)c(=O)n2C` registered a viability of 111.

On to `CN(C)CC(=O)N1CCC(CC1)C2=CC=C(NC(=O)C3=NC(=C[NH]3)C#N)C(=C2)\C4=C\CCCC4`, for which, under “top concentration 46.1 µM”, the viability turned out to be 129.

In the case of `CC1=CC=CC=C1N2\C(=N/C3=C(C(=CC=C3)C)C2=O)C[N]4C=NC5=C4N=CN=C5N`, the viability (top concentration 46.1 µM) stood at 24.1.

In the case of `CN1CCN(c2ncc(-c3cc(Cl)cc(Cl)c3Cl)c(N)n2)CC1`, the viability (top concentration 46.1 µM) is 119.

In the case of `CN(Cc1cc(Br)cc(Br)c1N)C1CCCCC1`, the viability (top concentration 46.1 µM) stood at 122.

For `O=C(/C=C/c1cccc([S+](=O)([O-])Nc2ccccc2)c1)NO`, under “top concentration 92.2 µM”, the viability is 87.7.

Consider `Cn1cc(-c2ccc3nnc(Sc4ccc5ncccc5c4)n3n2)cn1`, for which the viability (top concentration 46.1 µM) worked out at 108.

For `CC(C)(C)C1=NC2=C([NH]1)C3=CC=C(F)C=C3C4=C2\C=C/NC4=O`, where the note is “top concentration 46.1 µM”, the viability was found to be 133.

Where the note is “top concentration 46.1 µM”, `CC[N+](CC)(CC)CCOc1cccc(OCC[N+](CC)(CC)CC)c1OCC[N+](CC)(CC)CC` showed a viability of 97.6.

Compound `CC1(C)CCC(=C(CN2CCN(CC2)C3=CC=C(C=C3)C(=O)N[S+]([O-])(=O)C4=CC(=C(N[C@H](CCN5CCOCC5)CSC6=CC=CC=C6)C=C4)[S+]([O-])(=O)C(F)(F)F)\C1)/C7=CC=C(Cl)C=C7` showed a viability (top concentration 46.1 µM) of 97.

Under “top concentration 46.1 µM”, `Cn1c(=O)c2[nH]cnc2n(C)c1=O` showed a viability of 120.

Where the note is “top concentration 46.1 µM”, `Cc1ccc(NC(=O)c2ccc(CN3CCN(C)CC3)cc2)cc1Nc1nccc(-c2cccnc2)n1` yielded a viability of 127.

Compound `Oc1ccc2c3c1O[C@H]1c4[nH]c5c(c4C[C@@]4(O)[C@@H](C2)N(CC2CC2)CC[C@]314)C[C@@]1(O)[C@H]2Cc3ccc(O)c4c3[C@@]1(CCN2CC1CC1)[C@H]5O4` came in with a viability (top concentration 46.1 µM) of 142.

As for `COc1ccc2cc1Oc1ccc(cc1)C[C@H]1c3cc(c(OC)cc3CCN1C)Oc1c(OC)c(OC)cc3c1[C@H](C2)N(C)CC3`, the viability (top concentration 46.1 µM) was determined as 86.

Take `CC(C)(C)OC(=O)Nc1ccc(-c2cc(C(=O)NCCCCCCC(=O)NO)no2)cc1`: the viability (top concentration 46.1 µM) turned out to be 81.6.

The compound `CC(C)N(CC[C@H](c1ccccc1)c1cc(CO)ccc1O)C(C)C` came in with a viability (top concentration 46.1 µM) of 137.

With `Oc1cc2c(cc1O)C1c3ccc(O)c(O)c3OCC1(O)C2` (stereo not given), where the note is “top concentration 46.1 µM”, the viability was determined as 129.

For the setting “top concentration 46.1 µM”, `CN1CC(=O)\N=C1\NC(=O)NC2=CC(=CC=C2)Cl` returned a viability of 91.6.

`Fc1ccc(CNc2ncnc3ccc(F)cc23)cc1` came in with a viability (top concentration 46.1 µM) of 80.4.

For the setting “top concentration 46.1 µM”, `c1ccc2c(Oc3nc(Nc4ccc(N5CCOCC5)cc4)c4ncn(C5CCCCC5)c4n3)cccc2c1` returned a viability of 124.

As to `Cc1cc(C(C)(C)C)c(O)c(C)c1CC1=NCCN1`, the viability (top concentration 46.1 µM) was found to be 120.

With `O=C(O)c1ccc2c(c1)nc(Nc1cccc(Cl)c1)c1ccncc12`, the viability (top concentration 46.1 µM) stood at 88.1.

`CCCCCCOC(=O)/N=C(/N)c1ccc(NCc2nc3cc(C(=O)N(CCC(=O)OCC)c4ccccn4)ccc3n2C)cc1` registered a viability (top concentration 46.1 µM) of 115.

Take `OC1=CC2=C(C(=C1)O)C(=O)\C(=C(/O2)C3=CC(=C(O)C(=C3)O)O)O`: the viability (top concentration 46.1 µM) amounted to 102.

With `O=C(O)c1ccccc1C(=O)Nc1ccc(-c2ccccc2)cc1`, the viability (top concentration 46.1 µM) is 111.

Turning to `C[C@@H](NC(=O)c1ncnc(N)c1Cl)c1ncc(C(=O)Nc2cc(C(F)(F)F)c(Cl)cn2)s1`, the viability (top concentration 46.1 µM) was found to be 109.

In the case of `CC(C)Oc1ccc(C(=O)N[C@H](CNC(=O)CN(C)C)Cc2ccc(-c3cn4cccc([C@H](C)O)c4n3)cc2)cc1Cl`, the viability (top concentration 46.1 µM) was 98.1.

Consider `NCCCC(O)(P(=O)(O)O)P(=O)(O)O.O.O.O.[Na+]`, for which the viability (top concentration 46.1 µM) came out at 111.

The compound `CN1CCN(CC1)C2=CC3=C([NH]C(=N3)C/4=C(\N)C5=C(F)C=CC=C5NC4=O)C=C2` gave a viability (top concentration 46.1 µM) of 123.

For the setting “top concentration 46.1 µM”, `OCCN1C[C@H](O)[C@@H](O)[C@H](O)[C@H]1CO` gave a viability of 151.

With `COC(=O)C/1=C/O[C@@H](O)[C@H]\2[C@@H]1C\C=C2CO`, the viability (top concentration 46.1 µM) amounted to 94.5.

As for `COc1cc[nH]c2ncc(C(=O)C(=O)N3CCN(C(=O)c4ccccc4)C[C@H]3C)c1-2`, under “top concentration 46.1 µM”, the viability worked out at 134.

Regarding `O=C1c2c(O)cc(O)cc2O[C@H](c2cc(O)c(O)c(O)c2)[C@H]1O`, for the setting “top concentration 46.1 µM”, the viability is 115.

For the compound `CN1CCN(c2c(F)cc3c(=O)c(C(=O)O)cn(CCF)c3c2F)CC1`, the viability (top concentration 46.1 µM) came out at 104.

Compound `CN(C)Cc1cccc(N/C(=C2\C(=O)Nc3cc(C(=O)N(C)C)ccc32)c2ccccc2)c1` came in with a viability (top concentration 46.1 µM) of 95.1.

`CN1C(=O)CCS(=O)(=O)C1c1ccc(Cl)cc1` (stereo not given): under “top concentration 46.1 µM”, the viability was 104.

On to `CNC(=O)N1\N=C(\C2=CC=C(N)C=C2)C3=CC4=C(OCO4)C=C3CC1C` (stereo not given), for which the viability (top concentration 46.1 µM) came out at 107.

The compound `Cc1cc(CN2CCN(c3c(Br)cnc4[nH]c(-c5ccc(N6CCN(C)CC6)cc5)nc34)CC2)no1` gave a viability (top concentration 46.1 µM) of 108.

In turn, `CC(C)OC(=O)C(C)(C)Oc1ccc(C(=O)c2ccc(Cl)cc2)cc1` returned a viability (top concentration 46.1 µM) of 117.

`O=C(c1ccc(OCCN2CCCCC2)cc1)c1c(-c2ccc(O)cc2)sc2cc(O)ccc12` yielded a viability (top concentration 46.1 µM) of 94.4.

Where the note is “top concentration 46.1 µM”, `NC(=O)c1ccc(I)c([N+](=O)[O-])c1` yielded a viability of 122.

The compound `O=C(O)c1ccc2cc(-c3ccc(O)c(C45CC6CC(CC(C6)C4)C5)c3)ccc2c1` returned a viability (top concentration 46.1 µM) of 109.

For the setting “top concentration 46.1 µM”, `COCC(=O)NC/C=C/c1ccc2ncnc(Nc3ccc(Oc4ccc(C)nc4)c(C)c3)c2c1` gave a viability of 98.1.

On to `C[C@@H]1CC[C@@]2(CC[C@]3(C)\C(=C/C[C@@H]4[C@@]5(C)CC[C@H](O)C(C)(C)[C@@H]5CC[C@@]34C)[C@@H]2[C@H]1C)C(O)=O`, for which the viability (top concentration 92.2 µM) is 95.2.

Consider `COC(=O)c1ccc2c(c1)NC(=O)/C2=C(\Nc1ccc(N(C)C(=O)CN2CCN(C)CC2)cc1)c1ccccc1`, for which, for the setting “top concentration 46.1 µM”, the viability came out at 112.

As to `COc1cccc(Nc2c(C(N)=O)cnc3c(C)cc([S+](=O)([O-])c4cccc(C(=O)N(C)C)c4)cc23)c1`, where the note is “top concentration 23 µM”, the viability is 97.1.

Regarding `O=C1Nc2ccc(Cl)cc2C(C#CC2CC2)(C(F)(F)F)O1` (stereo not given), where the note is “top concentration 46.1 µM”, the viability was 95.5.

For `CSCC[C@@H](NC(=O)[C@@H](Cc1ccccc1)NC(=O)CNC(=O)CNC(=O)[C@@H](N)Cc1ccc(O)cc1)C(=O)O`, the viability (top concentration 46.1 µM) is 126.

For the setting “top concentration 46.1 µM”, `Oc1ccc(/C=C/c2cc(O)cc(O)c2)cc1` showed a viability of 96.3.

In turn, `Cc1noc(N[S+](=O)([O-])c2ccc(N)cc2)c1C` showed a viability (top concentration 46.1 µM) of 130.

Turning to `N[C@@H](CC(=O)N1CCn2c(nnc2C(F)(F)F)C1)Cc1cc(F)c(F)cc1F`, under “top concentration 46.1 µM”, the viability turned out to be 97.9.

With `Cc1cc(-c2ncc(CC(=O)Nc3ccc(-c4cnccn4)cn3)cc2C)ccn1`, under “top concentration 46.1 µM”, the viability turned out to be 85.8.

In turn, `CN1C(=O)C(=C\C2=C1N=C(NC3=CC=CC(=C3)C(O)=O)N=C2)/C4=C(Cl)C=CC=C4Cl` showed a viability (top concentration 46.1 µM) of 148.

The compound `OC[C@H]1O[C@@H](O[C@@H]2[C@@H](CO)O[C@](O)(CO)[C@H]2O)[C@H](O)[C@@H](O)[C@H]1O` displayed a viability (top concentration 46.1 µM) of 95.3.

`CCCCc1oc2ccc(NS(C)(=O)=O)cc2c1C(=O)c1ccc(OCCCN(CCCC)CCCC)cc1`: the viability (top concentration 46.1 µM) worked out at 126.

In the case of `COc1ccc(C2(C#N)CCC(C(=O)O)CC2)cc1OC1CCCC1` (stereo not given), under “top concentration 46.1 µM”, the viability worked out at 123.

Turning to `Cc1cccc(/C=N/Nc2cc(N3CCOCC3)nc(OCCc3ccccn3)n2)c1`, the viability (top concentration 46.1 µM) was determined as 87.4.

Compound `Clc1ccc(C(Cn2ccnc2)OCc2ccc(Sc3ccccc3)cc2)c(Cl)c1` (stereo not given) gave a viability (top concentration 46.1 µM) of 118.

The values above are taken from the supplement of paper PMC6723410.
